Experiment in all cases: growth of human tumour cells (NCI), 48 h
In experiment [1] the test system is SNB-19 CNS.
Experiment [2] deals with CCRF-CEM leukemia.
Experiment [3] deals with OVCAR-4 ovarian.
Experiment [4] deals with NCI-H23 lung.
Experiment [5] concerns SF-268 CNS.
The subject of experiment [6] is COLO 205 colon.
Experiment [7] concerns HOP-62 NSCLC.
The subject of experiment [8] is M14 melanoma.
The test system of experiment [9] is UO-31 renal.
In experiment [10] the test system is SNB-75 CNS.
The subject of experiment [11] is SK-MEL-5 melanoma.
In experiment [12] the test system is EKVX NSCLC.
In experiment [13] the test system is RPMI-8226 leukemia.

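A five-concentration, 48-hour dose response in 96-well plates underlies each endpoint, interpolated linearly between surrounding concentrations. TGI: concentration producing complete growth inhibition.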 A value given as a limit tells only on which side of the number the result lay.

Consider `N=C(N)SCc1cccc2c(=O)cc(-c3ccccc3)oc12`, for which the TGI was above 61.1 µM in experiment [1]; 18.6 µM in experiment [2]; 31.2 µM in experiment [3]; 31.3 µM in [4]; 45.8 µM in experiment [5]; 27.3 µM in experiment [6]. Moreover, the TGI in experiment [7] was 44.8 µM; in [8], 27.5 µM; in experiment [9], 11.3 µM; in [10], 19.4 µM; in experiment [11] it was 29.8 µM; in [12] it was 37.9 µM. In experiment [13], the TGI amounted to 18.4 µM.
Take `O=c1[nH]n(Cc2ccccn2)c2ccc([N+](=O)[O-])cc12`: the TGI in experiment [1], in experiment [2], in experiment [3], in [4], in experiment [5] and in experiment [6] was above 100 µM in each case. Besides, the TGI in [7], in [8], in experiment [9], in [10], in experiment [11] and in experiment [12] was above 100 µM in each case. The TGI in experiment [13] is above 100 µM.
With `CSc1nc2[nH]c(=O)c(C)nc2c(=O)[nH]1`, the TGI in experiment [1], in [2], in experiment [3], in experiment [4], in experiment [5] and in [6] was above 100 µM each time. Moreover, the TGI in [7], in [8], in experiment [9], in [10], in experiment [11] and in experiment [12] was above 100 µM throughout. For the same compound, the TGI in experiment [13] was above 100 µM.
`O=C(O)c1ccccc1/C=N/NC1=NCCCCN1`: the TGI in [1], in experiment [2], in [3], in experiment [4], in experiment [5] and in experiment [6] was above 100 µM each time. Moreover, the TGI in [7], in [8], in experiment [9], in experiment [10], in experiment [11] and in [12] was above 100 µM each time. For the same compound, the TGI in experiment [13] is above 100 µM.
With `COc1ccc(C2SC(C)C(=O)N2c2nc(-c3nc(-c4ccc(Cl)cc4)cs3)cs2)cc1` (stereo unspecified), the TGI in experiment [1], in experiment [2], in [3], in [4], in experiment [5] and in experiment [6] was above 100 µM throughout. Also, the TGI in experiment [7], in [8], in [9], in experiment [10], in experiment [11] and in [12] was above 100 µM throughout. This compound returned a TGI in experiment [13] above 100 µM.
On to `COc1cc2c(cc1O)[C@@H]1Cc3c(cc(OC)c(OC)c3Oc3cc4c(cc3OC)CCN(C)[C@@H]4Cc3ccc(O)cc3)[C@H](C2)N1C`, for which the TGI was above 100 µM in [1]; above 72.1 µM in experiment [2]; above 100 µM in experiment [3]; above 100 µM in experiment [4]; above 100 µM in experiment [5]; 38.2 µM in experiment [6]. In addition, the TGI is above 100 µM in experiment [7]; 33.9 µM in [8]; above 100 µM in [9]; above 80 µM in experiment [10]; 30.1 µM in experiment [11]; above 100 µM in experiment [12]. Further, in [13], the TGI is above 79.6 µM.
With `NC(=Nc1ccc(O)cc1)S(=O)O`, the TGI in experiment [1], in experiment [2], in experiment [3], in experiment [4], in experiment [5] and in [6] was above 100 µM throughout. Also, the TGI in [7], in experiment [8], in experiment [9], in experiment [10], in experiment [11] and in [12] was above 100 µM each time. In experiment [13], this compound returned a TGI above 100 µM.
For `C=C1CN(Cc2ccccc2)[C@@H]2CCCCC[C@H](C#N)[C@H]12`, the TGI in experiment [1], in experiment [2], in experiment [3], in experiment [4], in [5] and in experiment [6] was above 100 µM in each case. Also, the TGI in experiment [7], in experiment [8], in experiment [9], in experiment [10], in [11] and in [12] was above 100 µM each time. In addition, the TGI in experiment [13] is above 80.1 µM.
In the case of `CC1(C)CC(=O)c2c(nc(SSc3nc4c(c(-c5ccccc5)c3C#N)C(=O)CC(C)(C)C4)c(C#N)c2-c2ccccc2)C1`, the TGI in [1], in experiment [2], in experiment [3], in [4], in experiment [5] and in experiment [6] was above 10 µM throughout. Moreover, the TGI in experiment [7], in experiment [8], in [9], in experiment [10], in experiment [11] and in experiment [12] was above 10 µM throughout. The same compound showed a TGI in [13] above 10 µM.
For the compound `COc1ccc(/C=C2\N=C(NN)N=C2Cl)cc1`, the TGI in experiment [1], in experiment [2], in [3], in experiment [4], in [5] and in [6] was above 100 µM in each case. In addition, the TGI in experiment [7], in experiment [8], in experiment [9], in experiment [10], in [11] and in [12] was above 100 µM throughout. The compound also registered a TGI in experiment [13] above 100 µM.
In the case of `COc1ccc(Cc2nccc3cc(OC)c(OC)cc23)cc1OC`, the TGI in [1], in [2], in experiment [3], in experiment [4], in experiment [5] and in experiment [6] was above 100 µM each time. For the same compound, the TGI in experiment [7] was above 100 µM; in [8], above 100 µM; in [9], above 100 µM; in experiment [10] it was above 100 µM; in experiment [11] it was 99.3 µM; in experiment [12], above 100 µM. In experiment [13], this compound displayed a TGI above 100 µM.
Consider `O=C(O)C12CCCC(CCC1)C2`, for which the TGI in experiment [1], in experiment [2], in [3], in [4], in experiment [5] and in [6] was above 100 µM in each case. The TGI in experiment [7], in experiment [8], in experiment [9], in [10], in [11] and in experiment [12] was above 100 µM throughout. For the same compound, the TGI in experiment [13] is above 100 µM.

The record behind these values is PubChem BioAssay (NCI).
